Source: EP3623369A1, “NOVEL MORPHOLINYL AMINE COMPOUNDS FOR THE TREATMENT OF AUTOIMMUNE DISEASE” (F. Hoffmann-La Roche AG, priority 2018, dated 2020)

Target: T1, hTLR9 (Homo sapiens, UniProt Q9NR96)
T1 sequence (Q9NR96 26-1032): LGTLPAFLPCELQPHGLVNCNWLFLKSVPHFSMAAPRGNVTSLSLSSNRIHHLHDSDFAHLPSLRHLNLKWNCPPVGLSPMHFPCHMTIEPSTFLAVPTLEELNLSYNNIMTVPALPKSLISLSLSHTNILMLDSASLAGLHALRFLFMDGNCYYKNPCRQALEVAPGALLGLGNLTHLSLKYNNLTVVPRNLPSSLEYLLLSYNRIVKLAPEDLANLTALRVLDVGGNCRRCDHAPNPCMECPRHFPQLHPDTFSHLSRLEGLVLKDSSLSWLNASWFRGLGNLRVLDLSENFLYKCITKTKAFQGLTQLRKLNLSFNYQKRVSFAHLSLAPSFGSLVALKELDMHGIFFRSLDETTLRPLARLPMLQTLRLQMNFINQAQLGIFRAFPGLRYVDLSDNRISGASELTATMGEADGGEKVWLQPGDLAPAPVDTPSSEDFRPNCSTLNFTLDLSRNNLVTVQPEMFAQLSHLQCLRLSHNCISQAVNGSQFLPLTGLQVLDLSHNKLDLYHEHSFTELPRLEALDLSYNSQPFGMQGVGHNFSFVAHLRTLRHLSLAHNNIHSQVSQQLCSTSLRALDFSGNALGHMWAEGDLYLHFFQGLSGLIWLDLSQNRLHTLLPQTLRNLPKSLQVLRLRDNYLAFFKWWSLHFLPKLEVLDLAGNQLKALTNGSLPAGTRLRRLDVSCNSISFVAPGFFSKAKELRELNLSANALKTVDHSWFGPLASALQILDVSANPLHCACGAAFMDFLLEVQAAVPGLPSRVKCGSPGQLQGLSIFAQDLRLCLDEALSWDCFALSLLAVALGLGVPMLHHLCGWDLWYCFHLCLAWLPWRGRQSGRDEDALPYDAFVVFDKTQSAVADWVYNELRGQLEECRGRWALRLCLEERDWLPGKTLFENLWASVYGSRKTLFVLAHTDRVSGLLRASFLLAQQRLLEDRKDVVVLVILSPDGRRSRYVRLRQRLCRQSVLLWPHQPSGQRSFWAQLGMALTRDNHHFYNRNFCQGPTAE
Assay: HEK293-Blue-hTLR-9 cells assay (SEAP reporter, ODN2006 stimulation)
Assay type: cell-based
Details: HEK293-Blue-hTLR9 cells, ODN2006, 20 hrs; 0.032 is the lowest tested concentration; read-out: HEK/hTLR9 IC50
Experimental: The following tests were carried out in order to determine the activity of the compounds of formula (I) or (Ia) in HEK293-Blue-hTLR-7/8/9 cells assay.
HEK293-Blue-hTLR-9 cells assay:
A stable HEK293-Blue-hTLR-9 cell line was purchased from InvivoGen (Cat.#: hkb-htlr9, San Diego, California, USA). These cells were originally designed for studying the stimulation of human TLR9 by monitoring the activation of NF-κB. A SEAP (secreted embryonic alkaline phosphatase) reporter gene was placed under the control of the IFN-β minimal promoter fused to five NF-κB and AP-1-binding sites. The SEAP was induced by activating NF-κB and AP-1 via stimulating HEK-Blue hTLR9 cells with TLR9 ligands. Therefore the reporter expression was declined by TLR9 antagonist under the stimulation of a ligand, such as ODN2006 (Cat.#: tlrl-2006-1, Invivogen, San Diego, California, USA), for incubation of 20 hrs. The cell culture supernatant SEAP reporter activity was determined using QUANTI-Blue™ kit (Cat.#: rep-qb1, Invivogen, San Diego, California, USA) at a wavelength of 640 nm, a detection medium that turns purple or blue in the presence of alkaline phosphatase.
HEK293-Blue-hTLR9 cells were incubated at a density of 250,000∼450,000 cells/mL in a volume of 170 µL in a 96-well plate in Dulbecco's Modified Eagle's medium (DMEM) containing 4.5 g/L glucose, 50 U/mL penicillin, […], […], 2 mM L-glutamine, 10% (v/v) heat-inactivated fetal bovine serum with addition of 20 µL test compound in a serial dilution in the presence of final DMSO at 1% and 10 µL of 20uM ODN2006 in above DMEM, perform incubation under 37 °C in a CO2 incubator for 20 hrs. Then 20 µL of the supernatant from each well was incubated with 180 µL Quanti-blue substrate solution at 37 °C for 2 hrs and the absorbance was read at 620∼655 nm using a spectrophotometer. The signalling pathway that TLR9 activation leads to downstream NF-κB activation has been widely accepted, and therefore similar reporter assay was modified for evaluating TLR9 antagonist.

SMILES | IC50
C[C@@H]1CN(c2ccc(C#N)c3ncccc23)C[C@H](CN2Cc3cc(N4CCNCC4)cc(F)c3C2)O1 [Example 59, 5-[(2S,6R)-2-[(4-fluoro-6-piperazin-1-yl-isoindolin-2-yl)methyl]-6-methyl-morpholin-4-yl]quinoline-8-carbonitrile] | 66 nM
C[C@@H]1CN(c2ccc(C#N)c3nccnc23)C[C@H](CN2Cc3cnc(N4CCNCC4)cc3C2)O1 [Example 60, 8-[(2R,6S)-2-methyl-6-[(6-piperazin-1-yl-1,3-dihydropyrrolo[3,4-c]pyridin-2-yl)methyl]morpholin-4-yl]quinoxaline-5-carbonitrile] | 46 nM
C[C@@H]1CN(c2ccc(C#N)c3ncccc23)C[C@H](CN2Cc3cnc(N4CCNCC4)cc3C2)O1 [Example 61, 5-[(2R,6S)-2-methyl-6-[(6-piperazin-1-yl-1,3-dihydropyrrolo[3,4-c]pyridin-2-yl)methyl]morpholin-4-yl]quinoline-8-carbonitrile] | 59 nM
C[C@@H]1CN(c2ccc3c(c2)CN(C[C@H]2CN(c4ccc(C#N)c5ncccc45)C[C@@H](C)O2)C3)CCN1 [Example 62, 5-[(2R,6S)-2-methyl-6-[[5-[(3R)-3-methylpiperazin-1-yl]isoindolin-2-yl]methyl]morpholin-4-yl] quinoline-8-carbonitrile] | 62 nM
C[C@@H]1CN(c2ccc(C#N)c3ncccc23)C[C@H](CN2Cc3cnc(N4CCNCC4)nc3C2)O1 [Example 63, 5-[(2R,6S)-2-methyl-6-[(2-piperazin-1-yl-5,7-dihydropyrrolo[3,4-d]pyrimidin-6-yl)methyl]morpholin-4-yl]quinoline-8-carbonitrile] | 120 nM
C[C@@H]1CN(c2ccc(C#N)c3ncccc23)C[C@H](CN2Cc3ccc(N4CCN[C@@H](C)C4)cc3C2)O1 [Example 64, 5-[(2R,6S)-2-methyl-6-[[5-[(3S)-3-methylpiperazin-1-yl]isoindolin-2-yl]methyl]morpholin-4-yl]quinoline-8-carbonitrile] | 75 nM
C[C@@H]1CN(c2ccc3c(c2)CN(C[C@H]2CN(c4ccc(C#N)c5nccnc45)C[C@@H](C)O2)C3)CCN1 [Example 65, 8-[(2R,6S)-2-methyl-6-[[5-[(3R)-3-methylpiperazin-1-yl]isoindolin-2-yl]methyl]morpholin-4-yl] quinoxaline-5-carbonitrile] | 59 nM
C[C@@H]1CN(c2ccc(C#N)c3nccnc23)C[C@H](CN2Cc3ccc(N4CCN[C@@H](C)C4)cc3C2)O1 [Example 66, 8-[(2R,6S)-2-methyl-6-[[5-[(3S)-3-methylpiperazin-1-yl]isoindolin-2-yl]methyl]morpholin-4-yl]quinoxaline-5-carbonitrile] | 83 nM
COC(=O)C1CN(c2ccc3c(c2)CN(C[C@H]2CN(c4ccc(C#N)c5ncccc45)C[C@@H](C)O2)C3)CCN1 (stereo partly drawn) [Example 67, Methyl 4-[2-[[(2S,6R)-4-(8-cyano-5-quinolyl)-6-methyl-morpholin-2-yl]methyl]isoindolin-5-yl] piperazine-2-carboxylate] | 221 nM
C[C@@H]1CN(c2ccc(C#N)c3ncccc23)C[C@H](CN2Cc3cc(N4CCN(C)CC4)cc(F)c3C2)O1 [Example 69, 5-[(2S,6R)-2-[[4-fluoro-6-(4-methylpiperazin-1-yl)isoindolin-2-yl]methyl]-6-methyl-morpholin-4-yl]quinoline-8-carbonitrile] | 81 nM
C[C@@H]1CN(c2ccc(C#N)c3ncccc23)C[C@H](CN2CCc3cc(N4CCNCC4)ncc3C2)O1 [Example 70, 5-[(2R,6S)-2-methyl-6-[(6-piperazin-1-yl-3,4-dihydro-1H-2,7-naphthyridin-2-yl)methyl]morpholin-4-yl]quinoline-8-carbonitrile] | < 32 nM
C[C@@H]1CN(c2ccc3c(c2)CN(C[C@H]2CN(c4ccc(C#N)c5ncccc45)C[C@@H](C)O2)C3)C[C@H](C)N1 [Example 71, 5-[(2R,6S)-2-methyl-6-[[5-[(3R,5S)-3,5-dimethylpiperazin-1-yl]isoindolin-2-yl]methyl]morpholin-4-yl]quinoline-8-carbonitrile] | 73 nM
C[C@@H]1CN(c2ccc(C#N)c3ncccc23)C[C@H](CN2Cc3ccc(N4CC5COCC(C4)N5)cc3C2)O1 [Example 72, 5-[(2R,6S)-2-methyl-6-[[5-(3-oxa-7,9-diazabicyclo[3.3.1]nonan-7-yl)isoindolin-2-yl]methyl]morpholin-4-yl]quinoline-8-carbonitrile] | 66 nM
C[C@@H]1CN(c2ccc(C#N)c3ncccc23)C[C@H](CN2Cc3ccc(N4CCNCC4CO)cc3C2)O1 (stereo partly drawn) [Example 73, 5-[(2S,6R)-2-[[5-[2-(hydroxymethyl)piperazin-1-yl]isoindolin-2-yl]methyl]-6-methyl-morpholin-4-yl]quinoline-8-carbonitrile] | 60 nM
C[C@@H]1CN(c2ccc(C#N)c3ncccc23)C[C@H](CN2Cc3ccc(CN4CCCCC4)cc3C2)O1 [Example 74, 5-[(2R,6S)-2-methyl-6-[[5-(1-piperidylmethyl)isoindolin-2-yl]methyl]morpholin-4-yl]quinoline-8-carbonitrile] | 73 nM
C[C@@H]1CN(c2ccc(C#N)c3ncccc23)C[C@H](CN2Cc3ccc(N4CCNCC4)cc3C(O)C2)O1 (stereo partly drawn) [Example 75, 5-[(2S,6R)-2-[(4-hydroxy-6-piperazin-1-yl-3,4-dihydro-1H-isoquinolin-2-yl)methyl]-6-methyl-morpholin-4-yl]quinoline-8-carbonitrile] | 55 nM
C[C@@H]1CN(c2ccc(C#N)c3ncccc23)C[C@H](CN2Cc3ccc(N4CCNCC4C(F)F)cc3C2)O1 (stereo partly drawn) [Example 76, 5-[(2S,6R)-2-[[5-[2-(difluoromethyl)piperazin-1-yl]isoindolin-2-yl]methyl]-6-methyl-morpholin-4-yl]quinoline-8-carbonitrile] | 190 nM
C[C@@H]1CN(c2ccc(C#N)c3ncccc23)C[C@H](CN2Cc3ccc(N4CC(N)C4)cc3C2)O1 [Example 77, 5-[(2S,6R)-2-[[5-(3-aminoazetidin-1-yl)isoindolin-2-yl]methyl]-6-methyl-morpholin-4-yl]quinoline-8-carbonitrile] | 239 nM
CC1CNCCN1c1ccc2c(c1)CN(C[C@H]1CN(c3ccc(C#N)c4ncccc34)C[C@@H](C)O1)C2 (stereo partly drawn) [Example 78, 5-[(2R,6S)-2-methyl-6-[[5-(2-methylpiperazin-1-yl)isoindolin-2-yl]methyl]morpholin-4-yl] quinoline-8-carbonitrile] | 163 nM
C[C@@H]1CN(c2ccc(C#N)c3ncccc23)C[C@H](CN2CCc3nc(N4CCNCC4)ccc3C2)O1 [Example 79, 5-[(2R,6S)-2-methyl-6-[(2-piperazin-1-yl-7,8-dihydro-5H-1,6-naphthyridin-6-yl)methyl]morpholin-4-yl]quinoline-8-carbonitrile] | < 32 nM
C[C@@H]1CN(c2ccc(C#N)c3ncccc23)C[C@H](CN2Cc3ccc(N4CCNCC4)nc3C2)O1 [Example 80, 5-[(2R,6S)-2-methyl-6-[(2-piperazin-1-yl-5,7-dihydropyrrolo[3,4-b]pyridin-6-yl)methyl]morpholin-4-yl]quinoline-8-carbonitrile] | 56 nM
